Experimental findings from patent US20160106802A1, “METHODS OF DIAGNOSING AND TREATING ASTHMA” (Alba Therapeutics Corporation, priority 2006, published 2016) are described below.

For the assay, the system named is zonulin receptor. Put plainly: In situ immunofluorescence microscopy of lung tissue sections with FITC-labeled peptides. It is filed as binding. To be noted: mouse lung sections (4 μm, frozen blocks) incubated with FITC-labeled peptide; FIG. 1. The protocol: In situ immunofluorescence microscopy was used to establish the distribution of the zonulin receptor within the respiratory tract. Lung tissue sections (4 μm) made from frozen blocks were placed immediately on plain uncoated slides and incubated with either FITC-labeled FZI/0 (the zonulin synthetic peptide inhibitor that specifically binds to the zonulin receptor described in U.S. Pat. No. 6,458,925, Gly-Gly-Val-Leu-Val-Gln-Pro-Gly SEQ ID NO: 15) or FITC-labeled FZI/1 (a scrambled peptide described in U.S. Pat. No. 6,458,925, Val-Gly-Val-Leu-Gly-Arg-Pro-Gly SEQ ID NO: 25) The results are shown in FIG. 1.

Entries after “also recorded” stand apart in the source; their conditions may differ. Ends that are not written are not given here.

In the case of GGVLVQPG [FZI/0], the “immunofluorescence signal of FITC-labeled peptide bound to lung tissue sections” value is “Clusters of immunofluorescent FZI/0 particles were visualized; also recorded: Cluster of immunofluorescence FZI/0 particles were visualized”.
As to “VGVLGRPG [FZI/1, a scrambled peptide described in U.S. Pat. No. 6,458,925, reference compound]”, the “immunofluorescence signal of FITC-labeled peptide bound to lung tissue sections” value is given as “no signal was detected”.
